Data published in PubChem BioAssay AID1117361 (Southern Research Institute, 2015).

Each compound was assayed against Protein Tat (Human immunodeficiency virus type 1 group M subtype B (isolate HXB2)) (UniProt P04608) (assay: HIV-1 Tat–TAR interaction blockers – biochemical, fluorescence polarization, FAM-labeled TAR RNA, counter-screen for Vif-APOBEC3G degradation inhibitor project, dose response (AID 1117361)). Conditions: Tat-TAR RNA binding.
Chain of Protein Tat (Human immunodeficiency virus type 1 group M subtype B (isolate HXB2)) (P04608 whole entry, looked up): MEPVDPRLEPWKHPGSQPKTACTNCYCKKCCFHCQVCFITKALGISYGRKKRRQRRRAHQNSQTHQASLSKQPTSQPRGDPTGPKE

SMILES	IC50
Cc1cc(-c2nc3c4c5c(sc4[nH]c(=O)n3n2)CCC5)c(C)o1	3.66 µM
O=C(O)c1cccc2c1NC(C(=O)O)C1CC(Sc3ccccc3[N+](=O)[O-])C(Cl)C21 (stereo unspecified)	1.91 µM
COc1ccc2nc3ccccc3nc2c1N	81.6 µM
CC(=O)OCCCNc1cc(Sc2nc3ccccc3s2)c2nonc2c1[N+](=O)[O-]	3.41 µM
CCOc1cccc(=O)c2c(C)n(-c3ccc(C(=O)O)cc3)c(C)c12	3.3 µM
Cc1ccccc1Cc1c(C)nc2c(C(=O)NCc3ccc4c(c3)OCO4)cnn2c1C	1.06 µM
CCc1cc(=O)n2[nH]c(C)c(-c3ccccc3OC)c2n1	12.7 µM
O=C(O)c1cccc(-n2cccc2/C=C/[N+](=O)[O-])c1	5.57 µM
O=C(C1CCCO1)N1CCC2(CC1)OCCO2 (stereo unspecified)	5.55 µM
O=C(O)/C=C/C(=O)Nc1cccnc1	2.02 µM
Cc1cccc(NC(=O)CSc2nnc(-c3ccco3)c(-c3ccco3)n2)c1C	15 µM
COc1ccccc1NCCC(=O)OCC(=O)NCc1ccco1	58 µM
COc1ccc(O)c(N)c1	5.5 µM
O=C1CC(c2ccco2)CC(O)=C1C=Nc1cc(Cl)cc(Cl)c1 (stereo unspecified)	9.58 µM
CCC(=O)N1N=C(c2ccc(NS(C)(=O)=O)cc2)CC1c1ccc(C)cc1 (stereo unspecified)	88.8 µM
O=C(O)c1cc(N2N=C(C(F)(F)F)/C(=C/C=C/c3ccco3)C2=O)ccc1Cl	0.616 µM
COc1ccc2ccccc2c1C1CC(=O)N2CN(Cc3ccco3)CSC2=C1C#N (stereo unspecified)	67.7 µM
N#CC1=C(N)C2=C(N3CCCCC3)CCCC2C1(C#N)C#N (stereo unspecified)	5.45 µM
CC(=O)c1ccc2c(c1)C1C=CCC1C(C(=O)O)N2 (stereo unspecified)	2.47 µM
O=C(NCc1ccccc1Cl)c1csc2c1CCCCC2	27.2 µM
O=C(CCCCCN1C(=O)CCC1=O)Nc1ccc(Cl)c(C(F)(F)F)c1	16.4 µM
C(=C\c1ccco1)/c1ccc2ccccc2n1	9.39 µM
O=c1[nH]c(=S)[nH]c2c1C(c1ccc(Br)cc1)c1c([nH]c(=S)[nH]c1=O)O2	2.72 µM
Cc1ccc(NC(=O)COc2ccc(/C=N/NC(=O)CSCc3ccccc3)cc2)cc1	16.3 µM

SMILES	IC50
O=c1oc2c3c4c(cc2s1)CCCN4CCC3	26 µM
Nc1c(C(=O)NC2CC2)sc2nc3c(c(-c4ccco4)c12)CC/C3=C/c1ccco1	0.937 µM
Cc1ccc(C)n1/N=C1/NC(=O)CS1	0.882 µM
CCn1cc(Br)c(C(=O)Nc2cccc(SC)c2)n1	1.44 µM
O=C(O)c1ccc2c(c1)C1C(Cl)C(Sc3ccccc3[N+](=O)[O-])CC1C(c1cccc([N+](=O)[O-])c1)N2 (stereo unspecified)	6.3 µM
O=C1CC(Nc2ccc(N3CCOCC3)cc2)C(=O)N1Cc1ccccc1 (stereo unspecified)	15.4 µM
N=C1/C(=C\c2ccc(SCc3ccco3)o2)C(=O)N=C2SC=NN12	2.49 µM
CCOC(=O)CNc1ccc2c(c1)OCO2	1.47 µM
O=C1NC(=S)S/C1=C\c1ccc(SCc2ccco2)o1	0.926 µM
COc1ccc(NC(=O)/C(C#N)=C\c2ccc(Br)o2)cc1	60.8 µM
CCOc1cccc(CNc2ccc(O)cc2)c1OCc1ccccc1Cl	63 µM
O=S(=O)(O)c1cc(O)c2cc(Nc3ccccc3)ccc2c1	20.5 µM
Cc1cc(C)c(S(=O)(=O)N2CCCCC2)c(C)c1N(C)S(=O)(=O)c1ccc(Cl)cc1	29 µM
CCCCC1=CC2=CC(=O)C(C)(OC(=O)c3cnc4ccccc4n3)C(=O)C2=CO1 (stereo unspecified)	7.3 µM
CC1S/C(=N/N=C/c2ccco2)NC1=O (stereo unspecified)	70.3 µM
CN1CCN(C2=C(Cl)C(=O)C(c3cnc(N4CCCCC4)s3)=C(Cl)C2=O)CC1	6.71 µM
COC(=O)c1ccc(COc2ccc(/C=N/Nc3cccc(C(=O)O)c3)cc2)cc1	62.4 µM
NS(=O)(=O)c1ccc(N=Nc2c[nH]c(=O)c(O)c2)cc1	9.47 µM
O=C(Nc1ccccc1F)c1coc(=O)c(Br)c1	15 µM
Oc1ccc(NCc2cccc(OCc3ccccc3)c2)cc1	66.7 µM
CCC(=O)NC1=C(Cl)C(=O)C(NC(=O)CC)=C(Cl)C1=O	79.8 µM
CN(C)c1ncc(C2=C(Cl)C(=O)C(N3CCCC3)=C(Cl)C2=O)s1	1.54 µM
O=C(O)c1ccc(-n2cccc2/C=N\NC(=O)c2cc3cc(Br)ccc3o2)cc1	13.8 µM
Cc1cc(C(=O)CSc2nc3ccccc3c(=O)[nH]2)c(C)n1C	49.2 µM

SMILES	IC50
O/C=c1\ccc2cccc3nc(C(F)(F)F)nc1c23	2.92 µM
C=C(C)C(=O)Nc1cccc(C2=NOC3(C2)C[C@@H](C(N)=O)N(C(=O)/C=C/CC)C3)c1 (stereo partly specified)	24.5 µM
CCN(CC)Cc1cc(O)c(CN(CC)CC)cc1O	4.37 µM
CCOC(=O)NC1(NC2CCCCC2)Oc2ccccc2O1	88.4 µM
O=C1c2cccnc2C(Nc2ccccc2)N1Cc1ccco1 (stereo unspecified)	79.2 µM
CN(C)C(=O)c1nc2ccc(Cl)cn2c1CN1CCCC(OCc2ccccc2)C1 (stereo unspecified)	44.6 µM
Cc1ccc(N2C(=O)/C(=C/c3ccc(CN(CCC#N)S(C)(=O)=O)o3)C(=O)NC2=S)cc1	90 µM
COc1ccc(/C=C(\NC(=O)c2ccc(OCC(C)C)cc2)C(=O)OCc2ccco2)cc1	61.5 µM
Cc1ncc(CO)c(/C=N/NC(=O)c2cc(O)c(O)c(O)c2)c1O	32.1 µM
COCCNC(=O)COC(=O)c1[nH]c(C)c(C(C)=O)c1C	35.4 µM
Cc1cc(C)c(C(=O)/C=C/c2ccco2)c(=O)[nH]1	12.1 µM
O=C1C=Cc2ccccc2C1=O	30.5 µM
CC(C)n1c(=NC(=O)c2ccco2)c(C#N)cc2c(=O)n3ccccc3cc21	95.9 µM
Cc1cc2c(N)cccc2nn1	2.08 µM
CCOC(=O)C(=O)Cc1cccnn1	49.5 µM
COC/C=C/C1=CC2=CC(=O)C(C)(OC(=O)C3CCCC3)C(=O)C2=CO1 (stereo unspecified)	10.5 µM
COc1cc2c(cc1N)-c1ccc(N)cc1C2	2.51 µM
CCCNC1=C(C)C(=O)C2=C(C1=O)C(COC(N)=O)[C@]1(OC)C3NC3CN21 (stereo partly specified)	22.7 µM
COC(=O)\C(C(C)=O)=C(/C=C/C=C/C=C/N(C)C)N(C)C	56.3 µM
CCOC(=O)Cc1cc(=O)n2[nH]c(C)cc2n1	78.3 µM
O=C(CSc1nc(-c2ccco2)cc(C(F)(F)F)n1)N1CCc2ccccc2C1	35.2 µM
O=S(=O)(c1ccc(OCC(O)CN2CCC(Cc3ccccc3)CC2)cc1)N1CCOCC1 (stereo unspecified)	10.3 µM
Cc1ccc(NC(=O)CN(C)C(=O)c2cc(-c3ccco3)nc3ccccc23)cc1	69.2 µM
Cn1nc(-c2ccc(Cl)cc2)c2cc(C(=O)N3CCN(c4ccccc4)CC3)sc21	12.6 µM

SMILES	IC50
CCOC(=O)C1=C(c2ccccc2)N=c2s/c(=C\c3ccco3)c(=O)n2C1c1cccs1 (stereo unspecified)	32.8 µM
CC(C)CNC1=CC(=O)CC(c2ccco2)C1 (stereo unspecified)	31.3 µM
CN(C)c1ccc(N2C(=O)CC(Nc3ccc(N4CCOCC4)cc3)C2=O)cc1 (stereo unspecified)	9.99 µM
Cc1cc(O)ccc1-c1cnc2ccccc2n1	80.8 µM
COC(=O)CCC(=O)OC1(C)C(=O)C2=CN(CCCOC(C)C)C(c3ccc(OC)cc3)=CC2=C(Br)C1=O (stereo unspecified)	19.1 µM
Cc1[nH]c2c(Cl)cccc2c(=O)c1CN1CCCC1	78.3 µM
CC1=CN2C(=N)/C(=C/c3ccc([N+](=O)[O-])o3)C(=O)N=C2S1	12.2 µM
CC1=C(C#N)C(=O)N(C2CCS(=O)(=O)C2)C(=O)/C1=C\c1ccc(C)o1 (stereo unspecified)	1.35 µM
O=c1nc2s/c(=C\c3ccco3)c(=O)n2nc1Cc1ccccc1	5.21 µM
CNC[C@H](O)c1ccc(O)c(O)c1	11.8 µM
CCCCN1C(=O)/C(=C/C=C/c2ccco2)C(=O)NC1=S	21.7 µM
S=c1[nH]nc(COc2ccc3c(c2)OCO3)n1-c1ccccc1	1.03 µM
Cc1cccc(C)c1NC(=O)COC(=O)c1cc(-c2cccnc2)nc2ccccc12	84.6 µM
COC(=O)COc1ccc(S(=O)(=O)Nc2cc(OC)ccc2OC)cc1	28.2 µM
COc1cc(CNCCc2ccc(F)cc2)ccc1OCc1ccc(Cl)nc1	9.8 µM
CNC(=O)c1ccccc1NC(=O)c1ccc(C)c(S(=O)(=O)N2CCCCC2)c1	0.969 µM
CNc1cccccc1=S	4.41 µM
Clc1ccccc1N=Nc1ccccn1	35 µM
O=C1NC(=S)NC1=Cc1ccco1	35.7 µM
O=c1c(-c2cc3ccccc3o2)[n+]([O-])c2ccccc2n1OCc1ccccn1	34.5 µM
O=C(N/N=C/C=C/c1ccco1)c1ccncc1	10.2 µM
COc1ccc(OC)c(S(=O)(=O)Nc2ccc(O)c3ccccc23)c1	83 µM
CCn1c2ccccc2c2cc(NC(=O)c3ccccc3[N+](=O)[O-])ccc21	43.8 µM
CC(C)(C)NC(=O)C(c1ccncc1)N(C(=O)CNC(=O)c1ccco1)c1ccc2c(c1)OCO2 (stereo unspecified)	44.1 µM

SMILES	IC50
COc1cccc(NS(=O)(=O)c2ccc3c(c2)C2C=CCC2C(c2ccc(C(=O)O)cc2)N3)c1 (stereo unspecified)	3.59 µM
CC(=O)c1ccc(NC(=O)c2ccc3nc(-c4ccco4)c(-c4ccco4)nc3c2)cc1	7.73 µM
CCc1ccccc1NC(=O)c1cccc(NC(=O)/C=C/c2ccco2)c1	26.6 µM
CC1(OC(=O)CCc2ccccc2)C(=O)C=C2C=C(c3ccsc3)OC=C2C1=O (stereo unspecified)	65.8 µM
O=C(O)COc1ccc2c(c1)O/C(=C\c1ccco1)C2=O	53.1 µM
C=C(C)C(=O)Nc1ccc2c(c1)OCCOCCOCCO2	21.6 µM
Cc1ccc(/C=C/C2=Cc3c(sc(NC(=O)CSc4n[nH]c(N)n4)c3C#N)C(C)(C)C2)o1	3.04 µM
O=C(Nc1ccccc1)C1=C(O)CC(c2ccco2)CC1=Nc1ccccc1 (stereo unspecified)	70.3 µM
CC(C)N1C(=O)CC(Nc2ccc(N3CCOCC3)cc2)C1=O (stereo unspecified)	16 µM
CN(C)c1ccc(N2C(=O)CSC2=S)cc1	54.6 µM
O=C(Nc1ccccc1)c1ccc2nc(-c3ccco3)c(-c3ccco3)nc2c1	7.63 µM
O=c1cc(-c2ccc(O)cc2)oc2c(O)c(O)c(O)c(O)c12	74.9 µM
Oc1ccc(/C=N/N2CCOCC2)c(O)c1O	14 µM
CCOC(=O)COc1nc(-c2ccco2)cc(-c2ccco2)c1C#N	8.34 µM
Nc1cc(N)c(OCC(F)(F)F)cc1OCC(F)(F)F	11.4 µM
O=C(Cc1cc(=O)[nH][nH]1)N/N=C/C=C/c1ccccc1	43.1 µM
CCn1cc(CNC(=O)c2ccc(Cl)c([N+](=O)[O-])c2)c(C)n1	43 µM
O=S(=O)(O)c1cc(O)c2ccc(Nc3ccccc3)cc2c1	12.5 µM
O=C(CCCN1C(=O)/C(=C\c2ccco2)SC1=S)Nc1ccc2ccccc2c1	48.3 µM
COc1cc(C(=O)NCC(c2ccco2)N2CCCC2)ccc1OCc1c(C)noc1C (stereo unspecified)	93.5 µM
